Experimental data: US8557804B2, “Nicotinic receptor agonists for the treatment of inflammatory diseases” (priority 2002, dated 2013)
“And” between values parts separate entries of the source, which are not always exact repeats. Identical values can stand only once.

Key:
[1] = test system: collagen 1A mRNA expression by normal human lung fibroblasts; test: Collagen A1 gene expression by RT-PCR in primary normal lung fibroblasts; assay type: cell-based; settings: primary normal fibroblasts, RT-PCR
Description: Asthma is characterized by airway structural changes, including sub-epithelial collagen deposition, that may be a cause for the chronicity of the disease. An imbalance between collagen synthesis and its degradation by fibroblasts may be involved in this process (56). In preliminary experiments, we investigated the effects of nicotinic agonists on collagen A1 synthesis produced by primary normal fibroblasts. Collagen A1 gene expression was evaluated by RT-PCR.
The results are expressed percentage gene expression in agonists treated cells compared to non-treated cells.

[2] = test system: SR-induced inflammation in mice; test: Short term SR-induced acute lung inflammation in mice, BAL cells; assay type: in vivo
Text: (§1) The Intranasal instillation of Saccharopolyspora rectivirgula (SR) antigens, the causative agent for farmer's lung, to mice, induces a prominent inflammatory response in the lung. Neutrophils are the first inflammatory cells recruited at the site of inflammation.

[3] = test system: IFN-γ mRNA in T lymphocytes isolated from BAL; test: IFN-γ mRNA in PHA-stimulated BAL lymphocytes from HP patients; assay type: cell-based, human
Description: Since one goal was to treat patients with DMPP or similar drugs, the effect of this drug was verified on lymphocytes from patients with HP. BAL were performed on patients with HP. Lymphocytes were isolated from the other BAL cells, stimulated with PHA and incubated with DMPP. The dose-response of DMPP were tested on cytokine mRNA production (by RT-PCR) for IFN-γ.

IL-4 mRNA expression = IL-4 mRNA expression induced by a 24 h LPS stimulation; assay type: cell-based; settings: LPS stimulation 24 h, 40 to 160 μM
Description: The effect of agonist treatment on mRNA expression of IL-4, a cytokine that is well known to be involved in the development of asthma, was also tested (53). […] Cells were treated with different doses (40 to 160 μM for both nicotine and DMPP).

[4] = test system: IL-10 mRNA expression in AMJ2-C11 cells; test: IL-10 mRNA expression by RT-PCR in AMJ2-C11 cells; assay type: cell-based, mouse; settings: SR-stimulated 24 h, 80 μM
Description: (§2) The effect of nicotine or DMPP treatment on AMJ2-C11 cells was tested on TNF-α, IL-10 mRNA expression by RT-PCR. These cytokines are involved in the development of pulmonary inflammatory diseases such as HP, asthma and sarcoidosis (52-55). […] Reference is made to FIG. 3 where results are expressed as a % of expression, 100% being attributed to the LPS alone group. The intensity of the band was obtained by dividing the intensity of the TNF-α band by that of β-actin. […] Reference is made to FIG. 4 where results are expressed as described in FIG. 5.

[5] = test system: allergic inflammation of the lungs in ovalbumin-sensitized mice; test: Ovalbumin-sensitized mouse asthma model, BAL cell counts; assay type: in vivo, Balb/c mice
Description: (§3) Groups of Balb/c mice were sensitized by intra-peritoneal injection of 20 μg OVA protein (chicken egg albumin; Sigma-Aldrich) emulsified in 2 mg aluminum hydroxide in PBS. After 4 weeks, challenge doses of 1.5%/50 μl OVA were administered intranasally. The challenge was performed daily for 3 consecutive days and then the mice assessed for allergic inflammation of the lungs 24 h after the last aerosol exposure. Groups of mice were treated with various concentrations of DMPP during the challenge period. Broncho-alveolar lavage (BAL) was performed and the fluid centrifuged at 400 g to separate cells from liquid.
Ovalbumin-sensitized mice (n=8) were challenged with the allergen and simultaneously treated intra-nasally with increasing concentrations of ASM-002 (0.5 to 4 mg/kg/d) for 3 days. The number of cells recovered by broncho-alveolar lavage was used as a measure of lung inflammation.

[6] = test system: CD86 expression on alveolar macrophages; test: CD86 expression in SR-stimulated BAL cells of a normal patient; assay type: cell-based, human
Description: A broncho-alveolar lavage was performed on a normal patient, and alveolar macrophages were isolated.

IL-5 = test: BAL IL-5 levels in the ovalbumin mouse asthma model; assay type: in vivo, Balb/c mice; settings: 0.5 mg/kg treated-group
Description: as §3
The supernatants were used to determine lung IL-5 levels. The total, number of BAL cells and differential cell counts were evaluated.

[7] = test system: CD80 expression on AMJ2-C11 cells; test: B7 (CD80) molecule expression on AMJ2-C11 cells; assay type: cell-based, mouse; settings: 40 μM for 48 h
Description: The effects of nicotine and DMPP on B7 (CD80) molecule expression were tested in vitro. AMJ2-C11 cells (mouse alveolar macrophages, from the ATCC) were incubated with 40 μM nicotine or DMPP and stimulated with LPS (0.1 μg/ml) or SR antigen (50 μg/ml) for 48 hours.

[8] = test system: lung resistance after metacholine challenge; test: Airway hyper-reactivity / lung resistance to metacholine in asthmatic mice (FlexiVENT); assay type: in vivo; settings: 0.5 mg/kg intranasal DMPP
Description: Airway hyper-reactivity (AHR) in response to metacholine was measured in anesthetized, tracheotomized, ventilated mice using a computer-controlled ventilator (FlexiVENT™).
Increasing doses of metacholine (0 mg/kg-32.5 mg/kg) were administered through the jugular vein.
Lung response to a broncho-constrictive agent, metacholine, was measured by a Flexi-vent® apparatus. Ovalbumin-sensitized animals were treated intra-nasally with ASM-002 (4 mg/kg) during 3 days and 10 minutes prior to the metacholine challenge and compared to untreated OVA-sensitized animals. A negative control group of un-sensitized animals and a positive control group that received Salbutamol (Ventolin) 10 minutes before the metacholine challenge were also included.

[9] = test system: TNF-α mRNA expression in AMJ2-C11 cells; test: TNF-α mRNA expression by RT-PCR in AMJ2-C11 cells; assay type: cell-based, mouse; settings: SR-stimulated 24 h, 40 and 80 μM
Description: as §2

[10] = test system: TNF release by human blood monocytes; test: cells; assay type: cell-based; settings: 40 μM, mean of 5 subjects
Description: Human monocytes were isolated from the blood of asthmatic patients by Ficoll-paque density gradient, let to adhere to tissue culture plates and stimulated with LPS (100 ng/ml) for 18 hours at 37° C. with or without increasing concentrations of nicotine. The release of TNF, a potent pro-inflammatory mediator, was measured in the cell culture supernatant by the ELISA method. Results are expressed as a percentage release from LPS-stimulated untreated cells (FIG. 28).
Tumor necrosis factor (TNF) is a mediator released in inflammatory states.
Human blood monocytes were isolated by Ficoll-paque density gradient, let to adhere to tissue culture plates and stimulated with LPS (100 ng/ml) for 18 hours at 37° C. with or without increasing concentrations of nicotine analogues.

TNF = TNF levels in BAL fluid of SR-instilled mice; assay type: in vivo; settings: DMPP-treated mice, SR instillation
Text: as §1

C[N+]1(C)CCN(c2ccccc2)CC1 [DMPP, Dimethylphenylpiperazinium]
collagen A1 gene expression [1]: inhibits collagen A1 gene expression in a dose-dependent manner | effect on SR-induced inflammation (BAL cells) ([2]; intra-nasal every 6 h, 24 h after SR, DMPP 0.5 mg/kg, nicotine 0.5 mg/kg, epibatidine 2 μg/kg): marked inhibitory effect | effect on SR-induced lung inflammation compared to the non-treated group ([2]; number of mice increased to 15): significant inhibition | expression of IFN-γ mRNA [3]: reduced expression of IFN-γ | IL-4 mRNA expression (IL-4 mRNA expression): completely blocked | reduction (drop) of IL-10 mRNA expression [4]: 87% and 90% | eosinophils and lymphocytes in BAL ([5]; first dose response, all groups (n=8; p<0.05)): significantly reduced | total cell counts in BAL ([5]; intra-peritoneal DMPP, 0.5 and 2.0 mg/kg doses, OVA challenged mice): significantly reduced | eosinophil and lymphocyte counts in BAL ([5]; second dose response, 0.1 and 0.5 mg/kg doses): significantly reduced | most effective dose for the anti-inflammatory effect ([5]; second dose response, IP): 0.5 mg/kg | less CD86 expressed than non-treated cells ([6]; SR-stimulated BAL cells): 50% | expression of CD86 relative to non-treated cells ([6]; SR-stimulated alveolar macrophages): about half of the expression | IL-5 levels in BAL (IL-5): significant inhibitory effect | percentage of expression of CD80 ([7]; LPS (0.1 μg/ml) stimulated, LPS alone 38%): 17% | percentage of expression of CD80 ([7]; SR antigen (50 μg/ml) stimulated, SR alone 35%): 20% | % of augmentation of lung resistance compared to asthmatic mice ([8]; metacholine 0-32.5 mg/kg): reduced | PC200 (provocative challenge dose of 200% lung resistance augmentation) compared to asthmatic mice ([8]; p=0.04, n=6): significantly reduced | reduction of TNF-α mRNA expression [9]: up to 60% | TNF release [10]: inhibits TNF release | BALF TNF levels (TNF): decreased significantly
